Laboratory results from patent US12318462B2, “Multi-coated nanoparticles comprising multiple coating layers of chitosan and polyglutamic acid, composition for skin care comprising the same and method for manufacturing the same” (BINOTEC co., ltd., priority 2020, dated 2025).

Test: DPPH radical scavenging ability of nanoparticles by time
Type: biochemical
Description: DPPH radical scavenging ability was measured to confirm the effect of antioxidant physiological activity according to the sustained-release release of nanoparticles according to the coating layer structure and amount of hydrogel.
50 μL of 0.2 mM 1,1-diphenyl-2-picrylhydrazyl (DPPH) was added to 100 ul of each sample solution. Then, it was stirred and reacted at room temperature for 30 minutes, and then the ELISA reader (Powerwave XS2, Biotek, USA) was used to measure the absorbance at […]. The control groups were Butylated Hydroxynisole (BHA) and Catechin.
Next, using Equation 2 below, the DPPH radical scavenging ability of each nanoparticle was calculated. DPPH radical scavenging ability (%)=(1−absorbance of sample added group/absorbance of no added group)×100 [Equation 2]

| Compound | DPPH radical scavenging ability (18 hr) [%] | DPPH radical scavenging ability (24 hr) [%] | DPPH radical scavenging ability (48 hr) [%] |
| --- | --- | --- | --- |
| COc1ccc(O)c(C(C)(C)C)c1 [BHA, Butylated Hydroxynisole] | 93.2084 | 82.3362 | 47.0031 |
| Catechin | 93.4211 | 87.4680 | 70.5607 |
